Test results taken from article PMC9058666 (RSC Advances, 2020).

What was measured:
[1] = SD, rat, in vivo, po
[2] = in vivo; conditions: SD, rat, po, 50 mg/kg

Compound: O=c1[nH]cc(F)c(=O)[nH]1 [5-FU, 5-Fluorouracil]
- Cmax of 5-FU (from Fig. 7, mean plasma concentration-time profile) [1]: 20000 ng/mL
- time at which Cmax was reached (from Fig. 7) [1]: 0.5 h
- AUC(0-inf) [2]: 54600 ± 15000 ng·h/mL
- AUC(0-t) [2]: 50400 ± 10800 ng·h/mL
- Cmax [2]: 21000 ± 1980 ng/mL
- Tmax [2]: 0.667 ± 0.289 h
- half-life [2]: 1.47 ± 0.449 h
